Measured values published in DBAASP.
In brackets after ≈: the same amount, converted by molar mass. Each block holds one molecule with its values, some of them ahead of it.

Assays:
Assay in all cases: ≥ marks a high value that may be exact or a test limit, other limits are often not marked, values filed in µg/mL are converted to µM
Bacillus subtilis 168 = test system: Bacillus subtilis 168
Escherichia coli B = test system: Escherichia coli B
Pseudomonas aeruginosa = test system: Pseudomonas aeruginosa
Staphylococcus aureus = test system: Staphylococcus aureus
[1] = test system: Bacillus subtilis ATCC 6633
[2] = test system: Candida albicans ATCC 90028
[3] = test system: Escherichia coli ATCC 8739
[4] = test system: Staphylococcus aureus ATCC 43300
[5] = test system: Staphylococcus aureus ATCC 6538
[6] = test system: Staphylococcus aureus ATCC 25923
Escherichia coli BL21 = test system: Escherichia coli BL21
[7] = test system: Bacillus subtilis KCTC 3068
[8] = test system: Escherichia coli KCTC 1682
[9] = test system: Salmonella typhimurium KCTC 1926
[10] = test system: Staphylococcus aureus KCTC 1621
Acinetobacter baumannii = test system: Acinetobacter baumannii
Enterococcus faecalis = test system: Enterococcus faecalis
Escherichia coli = test system: Escherichia coli
Klebsiella pneumoniae = test system: Klebsiella pneumoniae
[11] = test system: Staphylococcus epidermidis

SMILES: CC[C@H](C)[C@@H]1NC(=O)[C@H](CCCCN)NC(=O)[C@@H](NC(=O)[C@H](CCCCN)NC(=O)[C@H](CC(C)C)NC(=O)[C@H](CCCCN)NC(=O)[C@H](CC(=O)O)NC(=O)[C@H](CC(C)C)NC(=O)[C@H](CC(C)C)NC(=O)[C@@H](NC(=O)[C@@H](NC(=O)[C@H](C)NC(=O)[C@@H](NC(=O)[C@H](CC(N)=O)NC(=O)[C@H](CCCCN)NC(=O)[C@H](C)NC(=O)[C@@H](NC(=O)[C@H](CC(N)=O)NC(=O)[C@H](CCCCN)NC(=O)[C@H](C)NC(=O)[C@@H](NC(=O)[C@H](CC(=O)O)NC(=O)[C@H](CCSC)NC(=O)[C@H](Cc2ccccc2)NC(=O)CN)[C@@H](C)O)C(C)C)C(C)C)C(C)C)[C@@H](C)O)CSSC[C@@H](C(=O)O)NC(=O)CNC(=O)CNC(=O)[C@H]([C@@H](C)O)NC1=O [GFMDTAKNVAKNVAVTLLDKLKCKITGGC]
MIC [1]: 12.5 µM (≈ 38 µg/mL)
MIC [2]: ≥ 100 µM
MIC [3]: ≥ 100 µM
MIC [4]: 100 µM (≈ 304 µg/mL)
MIC [5]: 25 µM (≈ 75.9 µg/mL)

SMILES: CSCC[C@H](N)C(=O)N[C@@H](CO)C(=O)N[C@@H](C)C(=O)N[C@@H](CCC(=O)O)C(=O)N[C@H](C(=O)N[C@H](C(=O)N[C@H](C(=O)N[C@@H](CCCCN)C(=O)N[C@@H](CCCCN)C(=O)N[C@H](C(=O)N[C@@H](CC(=O)O)C(=O)NCC(=O)N[C@@H](CC(=O)O)C(=O)N[C@@H](C)C(=O)N[C@@H](CC(C)C)C(=O)N[C@@H](CCC(=O)O)C(=O)N[C@@H](CC(C)C)C(=O)NCC(=O)O)C(C)C)C(C)C)C(C)C)C(C)C [MSAEVVVKKVDGDALELG]
MIC [3]: ≥ 138 µM
MIC [6]: > 138 µM

SMILES: CC[C@H](C)[C@H](NC(=O)CNC(=O)[C@H](CCCCN)NC(=O)[C@H](CC(C)C)NC(=O)[C@@H](NC(=O)[C@H](CC(C)C)NC(=O)[C@H](CC(N)=O)NC(=O)[C@H](CCCCN)NC(=O)[C@@H](NC(=O)[C@H](C)NC(=O)[C@H](CCCCN)NC(=O)CNC(=O)CNC(=O)[C@@H](NC(=O)[C@H](CCCCN)NC(=O)[C@H](CO)NC(=O)[C@H](Cc1ccccc1)NC(=O)[C@@H](NC(=O)[C@@H](N)CCCN=C(N)N)[C@@H](C)CC)[C@@H](C)CC)[C@@H](C)CC)[C@@H](C)CC)C(=O)N[C@@H](CCCCN)C(=O)N[C@@H](CC(N)=O)C(=O)N[C@H](C(=O)NCC(=O)N[C@@H](CCCCN)C(=O)N[C@@H](CCC(=O)O)C(=O)N[C@H](C(=O)NCC(=O)N[C@@H](CCSC)C(=O)N[C@@H](CC(=O)O)C(=O)N[C@H](C(=O)N[C@H](C(=O)N[C@@H](CCCN=C(N)N)C(=O)N[C@H](C(=O)NCC(=O)N[C@H](C(=O)N[C@@H](CC(=O)O)C(=O)N[C@H](C(=O)N[C@@H](C)C(=O)NCC(=O)N[C@H]1CSSC[C@@H](C(=O)O)NC(=O)[C@H](CCC(=O)O)NC(=O)CNC(=O)[C@H](CCCCN)NC(=O)[C@H]([C@@H](C)CC)NC(=O)[C@H](CCCCN)NC1=O)C(C)C)[C@@H](C)CC)[C@@H](C)O)[C@@H](C)CC)C(C)C)C(C)C)[C@@H](C)CC [RIFSKIGGKAIKNLILKGIKNIGKEVGMDVIRTGIDVAGCKIKGEC]
MIC [1]: 12.5 µM (≈ 61 µg/mL)
MIC [2]: ≥ 50 µM
MIC [3]: 3.1 µM (≈ 15.1 µg/mL)
MIC [4]: 12.5 µM (≈ 61 µg/mL)
MIC [5]: 3.1 µM (≈ 15.1 µg/mL)

SMILES: CC[C@H](C)[C@H](NC(=O)[C@H](C)NC(=O)[C@H](CC(C)C)NC(=O)[C@H](CC(=O)O)NC(=O)[C@H](CCCCN)NC(=O)[C@H](Cc1ccccc1)NC(=O)[C@@H](NC(=O)[C@@H](NC(=O)[C@H](CC(C)C)NC(=O)[C@H](Cc1ccccc1)NC(=O)[C@@H](N)CO)[C@@H](C)O)[C@@H](C)O)C(=O)N[C@@H](CCCCN)C(=O)N[C@@H](C)C(=O)N[C@@H](C)C(=O)N[C@@H](CCCCN)C(=O)N[C@@H](CO)C(=O)N[C@@H](C)C(=O)NCC(=O)N[C@@H](CCC(N)=O)C(=O)N[C@@H](CO)C(=O)N[C@H](C(=O)N[C@@H](CC(C)C)C(=O)N[C@@H](CO)C(=O)N[C@H](C(=O)N[C@@H](CC(C)C)C(=O)N[C@@H](CO)C(=O)N[C@H]1CSSC[C@@H](C(=O)O)NC(=O)[C@H]([C@@H](C)O)NC(=O)[C@H](CC(N)=O)NC(=O)[C@H](CO)NC(=O)[C@H](CC(C)C)NC(=O)[C@H](CCCCN)NC1=O)[C@@H](C)O)C(C)C [SFLTTFKDLAIKAAKSAGQSVLSTLSCKLSNTC]
MIC [1]: 25 µM (≈ 85.8 µg/mL)
MIC [3]: 12.5 µM (≈ 42.9 µg/mL)
MIC [5]: 6.3 µM (≈ 21.6 µg/mL)

SMILES: CC[C@H](C)[C@H](NC(=O)[C@@H]1CCCN1C(=O)[C@H](CC(C)C)NC(=O)[C@H](Cc1ccc(O)cc1)NC(=O)[C@H](Cc1cnc[nH]1)NC(=O)[C@H](C)NC(=O)CNC(=O)[C@H](C)NC(=O)[C@@H](NC(=O)[C@H](C)NC(=O)[C@H](CS)NC(=O)[C@H](C)NC(=O)[C@@H]1CCCN1C(=O)CNC(=O)[C@H](CS)NC(=O)[C@@H](NC(=O)[C@@H](NC(=O)CNC(=O)CNC(=O)[C@@H](N)C(C)C)[C@@H](C)O)[C@@H](C)CC)C(C)C)C(=O)O [VGGTICGPACAVAGAHYLPI]
MIC (Escherichia coli BL21): ≥ 128 µM

SMILES: CC(C)C[C@H](NC(=O)[C@H](Cc1ccccc1)NC(=O)[C@@H]1CCCN1C(=O)[C@H](Cc1c[nH]c2ccccc12)NC(=O)[C@H](Cc1c[nH]c2ccccc12)NC(=O)[C@H](Cc1c[nH]c2ccccc12)NC(=O)[C@@H]1CCCN1C(=O)[C@H](Cc1ccccc1)NC(=O)[C@H](CCCNC(=N)N)NC(=O)[C@H](CCCNC(=N)N)NC(=O)[C@@H](N)C(C)C)C(=O)N[C@@H](CCCNC(=N)N)C(=O)N[C@@H](CCCNC(=N)N)C(=O)O [VRRFPWWWPFLRR]
MIC [7]: 8.41 µM (≈ 16 µg/mL)
MIC [8]: ≥ 33.6 µM
MIC [9]: 16.8 µM (≈ 32 µg/mL)
MIC [10]: 8.41 µM (≈ 16 µg/mL)

SMILES: CC[C@H](C)[C@H](NC(=O)CNC(=O)[C@H](CCCN=C(N)N)NC(=O)[C@H](Cc1ccc(O)cc1)NC(=O)[C@H](CC(C)C)NC(=O)[C@H](CCCCN)NC(=O)CNC(=O)[C@H](Cc1ccccc1)NC(=O)[C@@H](N)Cc1c[nH]c2ccccc12)C(=O)N[C@H](C(=O)N[C@@H](CCCCN)C(=O)N[C@H](C(=O)N[C@H](C(=O)N[C@@H](CCCCN)C(=O)N[C@@H](CCCCN)C(=O)N[C@H](C(=O)N[C@@H](CCCCN)C(=O)NCC(=O)N[C@@H](CC(C)C)C(=O)N[C@@H](CC(C)C)C(=O)N[C@@H](CCCCN)C(=O)NCC(=O)O)C(C)C)C(C)C)C(C)C)[C@@H](C)O [WFGKLYRGITKVVKKVKGLLKG]
MIC (Acinetobacter baumannii): 0.6 µM (≈ 1.51 µg/mL)
MIC (Enterococcus faecalis): 1.2 µM (≈ 3.02 µg/mL)
MIC (Escherichia coli): 1.2 µM (≈ 3.02 µg/mL)
MIC (Klebsiella pneumoniae): 0.6 µM (≈ 1.51 µg/mL)
MIC (Pseudomonas aeruginosa): 1.3 µM (≈ 3.27 µg/mL)
MIC (Staphylococcus aureus): 9.9 µM (≈ 24.9 µg/mL)
MIC [11]: 1.2 µM (≈ 3.02 µg/mL)

Continued, values first:

MIC (Bacillus subtilis 168): 0.62 µM (≈ 1.26 µg/mL)
MIC (Escherichia coli B): 1 µM (≈ 2.04 µg/mL)
MIC (Pseudomonas aeruginosa): 22 µM (≈ 44.9 µg/mL)
MIC (Staphylococcus aureus): 40 µM (≈ 81.6 µg/mL)
SMILES: CC[C@H](C)[C@H](NC(=O)[C@H](CO)NC(=O)[C@H](CC(C)C)NC(=O)[C@H](Cc1ccccc1)NC(=O)CN)C(=O)N[C@@H](CC(C)C)C(=O)N[C@@H](CCCCN)C(=O)N[C@@H](CCCCN)C(=O)N[C@H](C(=O)N[C@@H](CC(C)C)C(=O)N1CCC[C@H]1C(=O)N[C@@H](CCCCN)C(=O)N[C@H](C(=O)N[C@@H](CCSC)C(=O)N[C@@H](C)C(=O)N[C@@H](Cc1cnc[nH]1)C(=O)N[C@@H](CCSC)C(=O)N[C@@H](CCCCN)C(N)=O)C(C)C)C(C)C [GFLSILKKVLPKVMAHMK]

MIC (Bacillus subtilis 168): 3.7 µM (≈ 5.43 µg/mL)
MIC (Escherichia coli B): ≥ 45 µM
MIC (Pseudomonas aeruginosa): > 100 µM
MIC (Staphylococcus aureus): > 100 µM
SMILES: CC[C@H](C)[C@H](NC(=O)[C@H](Cc1cnc[nH]1)NC(=O)[C@H](CCCCN)NC(=O)[C@H](CC(C)C)NC(=O)[C@H](CCCCN)NC(=O)[C@H](CO)NC(=O)[C@H](CCSC)NC(=O)[C@H](Cc1c[nH]c2ccccc12)NC(=O)[C@H](CCCCN)NC(=O)CN)C(=O)N[C@@H](CC(C)C)C(=O)N[C@@H](CCCCN)C(N)=O [GKWMSKLKHILK]

MIC [3]: 14.7 µM (≈ 32 µg/mL)
MIC [6]: > 117 µM
SMILES: CC[C@H](C)[C@H](NC(=O)[C@H](CCCCN)NC(=O)[C@H](C)NC(=O)[C@@H](NC(=O)[C@@H](NC(=O)[C@H](CCCN=C(N)N)NC(=O)[C@H](C)NC(=O)[C@H](CC(C)C)NC(=O)[C@@H](NC(=O)[C@H](CCCCN)NC(=O)[C@H](C)NC(=O)[C@H](C)NC(=O)[C@H](Cc1ccccc1)NC(=O)[C@H](CC(C)C)NC(=O)[C@H](CCCCN)NC(=O)[C@H](CCCCN)NC(=O)[C@H](CCSC)NC(=O)[C@@H]1CCCN1)[C@@H](C)CC)C(C)C)C(C)C)C(=O)N[C@@H](Cc1c[nH]c2ccccc12)C(=O)O [PMKKLFAAKILARVVAKIW]
